Series [1] concerns the target T1, 5-hydroxytryptamine receptor 1A (Homo sapiens, UniProt P08908).
T1 sequence (P08908 whole entry): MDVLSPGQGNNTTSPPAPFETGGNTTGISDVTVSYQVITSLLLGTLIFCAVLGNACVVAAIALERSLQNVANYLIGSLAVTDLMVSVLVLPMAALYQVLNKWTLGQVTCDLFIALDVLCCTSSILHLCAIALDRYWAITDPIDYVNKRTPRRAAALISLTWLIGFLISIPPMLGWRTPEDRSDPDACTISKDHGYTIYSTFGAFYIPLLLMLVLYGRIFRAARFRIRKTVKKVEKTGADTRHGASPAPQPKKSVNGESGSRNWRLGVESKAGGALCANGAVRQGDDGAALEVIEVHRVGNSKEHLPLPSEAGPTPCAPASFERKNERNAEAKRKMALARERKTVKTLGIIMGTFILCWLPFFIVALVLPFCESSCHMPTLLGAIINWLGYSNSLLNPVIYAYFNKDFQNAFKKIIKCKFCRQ
As to the kind of experiment: Displacement of [3H]8-OH-DPAT from human 5HT1A receptor in HEK293 cells.

Series [2] has as its target Sodium-dependent serotonin transporter (Homo sapiens, UniProt P31645). As to the kind of experiment: Binding affinity to 5HT transporter by radioligand binding assay.
Series [3] has as its target 5-hydroxytryptamine receptor 2B (Homo sapiens, UniProt P41595). As to the kind of experiment: Binding affinity to 5HT2B receptor by radioligand binding assay.
In series [4] the target is T2, Adrenergic receptor alpha-1 (Rattus norvegicus, UniProt P15823+P23944+P43140).
T2 sequence (P15823 whole entry): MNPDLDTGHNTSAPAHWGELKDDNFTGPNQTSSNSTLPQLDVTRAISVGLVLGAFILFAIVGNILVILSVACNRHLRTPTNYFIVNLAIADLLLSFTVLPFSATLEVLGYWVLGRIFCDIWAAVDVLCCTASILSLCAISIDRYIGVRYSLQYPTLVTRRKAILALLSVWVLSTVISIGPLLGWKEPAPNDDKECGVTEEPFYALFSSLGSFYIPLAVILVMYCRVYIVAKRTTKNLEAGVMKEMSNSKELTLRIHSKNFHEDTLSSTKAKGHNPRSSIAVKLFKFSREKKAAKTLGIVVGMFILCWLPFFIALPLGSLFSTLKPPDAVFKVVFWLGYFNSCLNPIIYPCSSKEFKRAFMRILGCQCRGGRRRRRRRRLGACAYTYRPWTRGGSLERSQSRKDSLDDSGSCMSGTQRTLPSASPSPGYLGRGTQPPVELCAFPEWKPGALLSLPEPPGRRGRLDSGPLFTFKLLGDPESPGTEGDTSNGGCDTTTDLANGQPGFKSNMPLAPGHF
T2 sequence (P23944 whole entry): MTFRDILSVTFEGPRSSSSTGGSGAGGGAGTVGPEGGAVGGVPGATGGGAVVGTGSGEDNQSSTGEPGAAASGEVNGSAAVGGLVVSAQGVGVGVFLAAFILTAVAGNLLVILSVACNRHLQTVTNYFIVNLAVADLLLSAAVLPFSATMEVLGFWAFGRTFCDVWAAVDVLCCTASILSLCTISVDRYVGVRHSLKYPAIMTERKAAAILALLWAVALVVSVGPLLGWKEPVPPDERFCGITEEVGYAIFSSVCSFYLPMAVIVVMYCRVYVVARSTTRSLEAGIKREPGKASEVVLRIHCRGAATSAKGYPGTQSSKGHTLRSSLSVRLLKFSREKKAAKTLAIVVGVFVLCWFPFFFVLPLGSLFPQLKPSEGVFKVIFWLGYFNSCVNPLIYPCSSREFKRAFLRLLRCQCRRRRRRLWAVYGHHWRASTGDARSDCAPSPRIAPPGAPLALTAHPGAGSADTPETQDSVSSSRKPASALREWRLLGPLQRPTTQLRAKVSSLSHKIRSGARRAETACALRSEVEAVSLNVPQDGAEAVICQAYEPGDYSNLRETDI
T2 sequence (P43140 whole entry): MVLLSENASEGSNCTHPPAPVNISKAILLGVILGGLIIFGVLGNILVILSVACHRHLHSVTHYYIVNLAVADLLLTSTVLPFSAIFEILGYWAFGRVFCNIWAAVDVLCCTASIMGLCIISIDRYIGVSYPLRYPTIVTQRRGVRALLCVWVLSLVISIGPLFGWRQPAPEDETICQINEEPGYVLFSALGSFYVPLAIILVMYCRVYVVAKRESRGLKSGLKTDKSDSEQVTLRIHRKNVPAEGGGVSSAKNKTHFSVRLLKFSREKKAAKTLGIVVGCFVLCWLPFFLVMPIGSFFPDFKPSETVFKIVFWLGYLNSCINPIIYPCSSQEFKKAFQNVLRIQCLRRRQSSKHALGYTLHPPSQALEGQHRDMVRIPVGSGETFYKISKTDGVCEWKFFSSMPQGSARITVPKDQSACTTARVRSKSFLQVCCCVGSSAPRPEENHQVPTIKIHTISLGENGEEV
As to the kind of experiment: Displacement of [3H]prazosin from adrenergic alpha-1 receptor in rat cerebral cortex cells. The series is classed as cell-based.

Series [5] concerns the target Alpha-2A adrenergic receptor (Rattus norvegicus, UniProt P22909). As to the kind of experiment: Displacement of [3H]RX 821002 from Adrenergic alpha-2a receptor in rat cerebral cortex cells. The series is classed as cell-based.
In series [6] the target is 5-hydroxytryptamine receptor 7 (Homo sapiens, UniProt P34969).
Description: Binding affinity to 5HT7 receptor by radioligand binding assay
The target in series [7] is 5-hydroxytryptamine receptor 2A (Homo sapiens, UniProt P28223).
Description: Binding affinity to 5HT2A receptor by radioligand binding assay
Series [8] is described as follows: Oral bioavailability in Sprague-Dawley rat at 3 mg/kg, po and 1 mg/kg, iv. The series is classed as ADME, organism-based. Particulars: in vivo.
Series [9] deals with T1, 5-hydroxytryptamine receptor 1A. The series can be described thus: Activity against 5HT1A receptor by Gi-[35S]GTP-gamma-S binding assay. The series is classed as functional. On the technique in general: GTPγS resists hydrolysis and so accumulates on activated G proteins.
Series [10] can be described thus: Half life in Sprague-Dawley rat at 3 mg/kg, po. Set-up: dose 3 mg/kg, route oral. Particulars: in vivo. The series is classed as ADME, organism-based.
In series [11] the target is T3, 5-hydroxytryptamine receptor 1A (Homo sapiens) (UniProt P08908).
T3 sequence (whole entry): T1 sequence (P08908 whole entry)
The series can be described thus: Activity against 5HT1A receptor relative to 5-HT by Gi-[35S]GTP-gamma-S binding assay. The series is classed as functional.

For series [12], the target named is Dopamine D2 receptor and serotonin 1a receptor (Homo sapiens) (UniProt P14416+P08908). The series can be described thus: Selectivity for D2 receptor over 5HT1A receptor. The series is classed as protein assay.
The next series has as its target D(2) dopamine receptor (Homo sapiens, UniProt P14416). As to the kind of experiment: Binding affinity to D2 receptor by radioligand binding assay.
The nature of series [13]: Selectivity for adrenergic alpha-1 receptor over 5HT1A receptor.
A short description of series [14]: Elimination half life in human. The series is classed as ADME, organism-based. Particulars: in vivo.
The target of a further series is Cytochrome P450 1A2 (Homo sapiens, UniProt P05177). The series can be described thus: Inhibition of human recombinant cytochrome P450 1A2. Particulars: recombinant enzyme. The series is classed as ADME.
Another series addresses Cytochrome P450 2D6 (Homo sapiens, UniProt P10635). The series can be described thus: Inhibition of human recombinant cytochrome P450 2D6. To be noted: recombinant enzyme. The series is classed as ADME.
A short description of series [15]: Cmax in Beagle dog at 3 mg/kg, po. The series is classed as ADME, organism-based, Canis lupus familiaris. Set-up: dose 3 mg/kg, route oral. Particulars: in vivo.
Series [16] is described as follows: Half life in Beagle dog at 3 mg/kg, po. Further details: dose 3 mg/kg, route oral. Particulars: in vivo. The series is classed as ADME, organism-based, Canis lupus familiaris.
Series [17] in a line: Cmax in Sprague-Dawley rat at 3 mg/kg, po. The series is classed as ADME, organism-based. Further details: dose 3 mg/kg, route oral. Particulars: in vivo.
Another series concerns the target Cytochrome P450 3A4 (Homo sapiens, UniProt P08684). The series can be described thus: Inhibition of human recombinant cytochrome P450 3A4. The series is classed as ADME. To be noted: recombinant enzyme.
A further series addresses Cytochrome P450 2C19 (Homo sapiens, UniProt P33261). The series can be described thus: Inhibition of human recombinant cytochrome P450 2C19. The series is classed as ADME. Particulars: recombinant enzyme.
The target in another series is Cytochrome P450 2C9 (Homo sapiens, UniProt P11712). As to the kind of experiment: Inhibition of human recombinant cytochrome P450 2C9. The series is classed as ADME. To be noted: recombinant enzyme.
Series [18] addresses T4, Alpha-2A adrenergic receptor (Rattus norvegicus) (UniProt P22909).
T4 sequence (whole entry): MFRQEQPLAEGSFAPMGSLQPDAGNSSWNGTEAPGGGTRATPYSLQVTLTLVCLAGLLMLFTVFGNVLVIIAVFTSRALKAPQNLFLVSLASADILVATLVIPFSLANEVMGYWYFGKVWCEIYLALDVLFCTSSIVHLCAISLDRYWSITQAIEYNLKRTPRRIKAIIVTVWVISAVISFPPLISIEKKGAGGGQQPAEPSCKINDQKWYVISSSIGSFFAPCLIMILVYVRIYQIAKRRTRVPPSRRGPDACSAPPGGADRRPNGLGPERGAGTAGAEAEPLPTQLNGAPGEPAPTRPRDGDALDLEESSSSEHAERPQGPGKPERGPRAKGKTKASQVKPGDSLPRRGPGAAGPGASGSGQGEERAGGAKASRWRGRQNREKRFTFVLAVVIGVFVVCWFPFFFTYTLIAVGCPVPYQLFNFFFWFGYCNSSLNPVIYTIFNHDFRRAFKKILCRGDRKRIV
The series can be described thus: Displacement of [3H]RX 821002 from Adrenergic alpha-2a receptor in rat cerebral cortex cells at 1 uM. The series is classed as cell-based. (In general: In a radioligand displacement assay an active substance lowers the binding of a labelled ligand.)

Series [19] in a line: Protein binding in human serum at 2 uM. The series is classed as ADME, organism-based. Particulars: read-out: PPB (converted).
Series [20] in a line: Oral bioavailability in Beagle dog at 3 mg/kg, po and 1 mg/kg, iv. The series is classed as ADME, organism-based, Canis lupus familiaris. Particulars: in vivo.
Series [21] is described as follows: Half life in human liver microsome at 5 uM. The series is classed as ADME. Particulars: liver microsomes.
The target in series [22] is Adrenergic receptor alpha-1 (Rattus norvegicus) (UniProt P15823+P23944+P43140). The series can be described thus: Displacement of [3H]prazosin from Adrenergic alpha-1 receptor in rat cerebral cortex cells at 1 uM. The series is classed as cell-based.

Where only a bound is given, the exact number is not on record here.

Sequence of D(2) dopamine receptor (P14416 whole entry): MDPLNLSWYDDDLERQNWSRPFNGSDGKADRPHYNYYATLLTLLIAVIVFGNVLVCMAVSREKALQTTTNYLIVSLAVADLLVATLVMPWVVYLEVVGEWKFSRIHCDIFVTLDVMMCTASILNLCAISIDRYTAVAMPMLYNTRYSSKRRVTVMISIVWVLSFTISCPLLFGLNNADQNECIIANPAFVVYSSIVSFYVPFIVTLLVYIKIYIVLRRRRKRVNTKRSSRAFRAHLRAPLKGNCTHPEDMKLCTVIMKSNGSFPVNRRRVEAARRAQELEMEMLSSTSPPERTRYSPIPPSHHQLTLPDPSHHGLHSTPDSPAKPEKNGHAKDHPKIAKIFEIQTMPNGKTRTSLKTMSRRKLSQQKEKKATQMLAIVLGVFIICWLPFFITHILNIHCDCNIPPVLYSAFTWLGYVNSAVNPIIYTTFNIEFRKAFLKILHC
Sequence of Cytochrome P450 2C19 (P33261 whole entry): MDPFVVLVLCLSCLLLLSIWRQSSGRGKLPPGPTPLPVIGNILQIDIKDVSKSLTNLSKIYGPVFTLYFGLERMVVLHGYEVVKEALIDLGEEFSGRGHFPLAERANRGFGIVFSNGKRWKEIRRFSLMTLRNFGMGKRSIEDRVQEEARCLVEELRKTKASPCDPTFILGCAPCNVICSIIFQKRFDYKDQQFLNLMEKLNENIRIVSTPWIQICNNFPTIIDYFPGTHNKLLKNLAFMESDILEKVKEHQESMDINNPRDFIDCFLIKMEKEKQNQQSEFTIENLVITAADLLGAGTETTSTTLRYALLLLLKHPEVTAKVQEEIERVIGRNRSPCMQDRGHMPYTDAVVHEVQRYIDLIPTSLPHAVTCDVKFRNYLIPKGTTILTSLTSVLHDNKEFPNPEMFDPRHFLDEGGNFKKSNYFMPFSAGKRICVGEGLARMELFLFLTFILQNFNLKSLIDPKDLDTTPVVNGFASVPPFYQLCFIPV
Sequence of Sodium-dependent serotonin transporter (P31645 whole entry): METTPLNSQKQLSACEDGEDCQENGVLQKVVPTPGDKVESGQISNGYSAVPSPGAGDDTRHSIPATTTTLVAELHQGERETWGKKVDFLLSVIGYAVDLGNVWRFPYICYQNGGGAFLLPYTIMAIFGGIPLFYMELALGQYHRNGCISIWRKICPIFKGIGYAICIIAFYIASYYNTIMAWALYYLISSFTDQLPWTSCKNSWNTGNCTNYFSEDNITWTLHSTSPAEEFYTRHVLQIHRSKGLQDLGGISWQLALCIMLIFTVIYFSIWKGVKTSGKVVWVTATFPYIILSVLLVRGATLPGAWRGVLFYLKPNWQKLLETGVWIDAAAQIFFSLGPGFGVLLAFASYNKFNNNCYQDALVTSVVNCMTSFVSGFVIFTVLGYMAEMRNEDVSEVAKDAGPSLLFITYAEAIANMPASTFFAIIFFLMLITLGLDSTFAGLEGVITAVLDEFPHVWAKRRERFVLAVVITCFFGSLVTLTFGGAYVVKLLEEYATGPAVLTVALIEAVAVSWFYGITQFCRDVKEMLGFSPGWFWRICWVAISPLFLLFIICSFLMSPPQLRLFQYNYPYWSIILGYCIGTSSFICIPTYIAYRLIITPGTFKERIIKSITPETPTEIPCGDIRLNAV
Sequence of 5-hydroxytryptamine receptor 7 (P34969 whole entry): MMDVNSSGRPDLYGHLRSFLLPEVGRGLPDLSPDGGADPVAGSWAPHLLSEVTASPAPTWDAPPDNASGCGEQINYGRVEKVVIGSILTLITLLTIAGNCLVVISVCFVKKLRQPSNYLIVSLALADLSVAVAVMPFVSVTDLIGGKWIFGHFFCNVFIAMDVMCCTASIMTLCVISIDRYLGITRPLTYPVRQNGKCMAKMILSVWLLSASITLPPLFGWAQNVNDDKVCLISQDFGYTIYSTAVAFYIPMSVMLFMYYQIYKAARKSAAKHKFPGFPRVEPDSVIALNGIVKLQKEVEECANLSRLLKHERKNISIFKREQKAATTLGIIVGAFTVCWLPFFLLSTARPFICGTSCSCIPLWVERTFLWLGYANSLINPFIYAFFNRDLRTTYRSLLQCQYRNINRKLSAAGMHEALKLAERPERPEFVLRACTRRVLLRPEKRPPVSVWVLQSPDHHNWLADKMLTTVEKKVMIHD
Sequence of Cytochrome P450 3A4 (P08684 whole entry): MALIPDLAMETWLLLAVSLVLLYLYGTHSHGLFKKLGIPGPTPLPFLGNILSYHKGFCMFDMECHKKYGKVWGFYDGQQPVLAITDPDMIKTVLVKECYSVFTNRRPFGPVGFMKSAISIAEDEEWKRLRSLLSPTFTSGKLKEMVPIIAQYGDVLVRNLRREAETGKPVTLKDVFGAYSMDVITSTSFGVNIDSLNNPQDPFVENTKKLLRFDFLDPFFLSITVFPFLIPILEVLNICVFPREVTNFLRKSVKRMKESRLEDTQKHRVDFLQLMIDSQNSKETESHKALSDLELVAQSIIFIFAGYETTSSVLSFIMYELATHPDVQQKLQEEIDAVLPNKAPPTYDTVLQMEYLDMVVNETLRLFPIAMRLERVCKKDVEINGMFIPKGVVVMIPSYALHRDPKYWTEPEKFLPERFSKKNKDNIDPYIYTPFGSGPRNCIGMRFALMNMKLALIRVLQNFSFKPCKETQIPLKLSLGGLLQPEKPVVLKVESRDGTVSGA
Sequence of 5-hydroxytryptamine receptor 2B (P41595 whole entry): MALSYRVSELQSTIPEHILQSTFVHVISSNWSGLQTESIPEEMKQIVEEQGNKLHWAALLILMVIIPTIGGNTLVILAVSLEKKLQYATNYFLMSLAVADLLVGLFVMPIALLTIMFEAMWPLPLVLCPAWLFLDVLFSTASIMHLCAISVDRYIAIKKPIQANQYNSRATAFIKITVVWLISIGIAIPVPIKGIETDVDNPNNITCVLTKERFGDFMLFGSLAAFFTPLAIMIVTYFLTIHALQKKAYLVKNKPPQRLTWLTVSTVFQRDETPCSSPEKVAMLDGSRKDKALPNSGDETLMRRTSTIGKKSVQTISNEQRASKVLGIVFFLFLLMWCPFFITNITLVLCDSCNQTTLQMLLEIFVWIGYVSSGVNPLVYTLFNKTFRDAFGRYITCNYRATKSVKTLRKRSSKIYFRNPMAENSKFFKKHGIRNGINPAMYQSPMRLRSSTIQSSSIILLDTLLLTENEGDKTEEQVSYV
Sequence of Cytochrome P450 1A2 (P05177 whole entry): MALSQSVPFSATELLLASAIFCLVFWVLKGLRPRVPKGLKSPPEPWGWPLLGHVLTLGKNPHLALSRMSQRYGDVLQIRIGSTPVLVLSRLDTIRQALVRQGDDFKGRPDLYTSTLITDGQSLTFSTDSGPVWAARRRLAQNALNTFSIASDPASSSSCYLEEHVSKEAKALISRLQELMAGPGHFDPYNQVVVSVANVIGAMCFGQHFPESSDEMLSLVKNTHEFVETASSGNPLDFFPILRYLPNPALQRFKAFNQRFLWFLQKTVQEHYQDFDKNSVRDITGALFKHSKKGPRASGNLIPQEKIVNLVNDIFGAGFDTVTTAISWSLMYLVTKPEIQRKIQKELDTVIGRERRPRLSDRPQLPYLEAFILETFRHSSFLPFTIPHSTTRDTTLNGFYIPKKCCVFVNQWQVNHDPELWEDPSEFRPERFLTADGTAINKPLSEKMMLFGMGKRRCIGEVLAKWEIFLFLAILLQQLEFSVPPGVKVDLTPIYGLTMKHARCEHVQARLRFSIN
Sequence of Cytochrome P450 2C9 (P11712 whole entry): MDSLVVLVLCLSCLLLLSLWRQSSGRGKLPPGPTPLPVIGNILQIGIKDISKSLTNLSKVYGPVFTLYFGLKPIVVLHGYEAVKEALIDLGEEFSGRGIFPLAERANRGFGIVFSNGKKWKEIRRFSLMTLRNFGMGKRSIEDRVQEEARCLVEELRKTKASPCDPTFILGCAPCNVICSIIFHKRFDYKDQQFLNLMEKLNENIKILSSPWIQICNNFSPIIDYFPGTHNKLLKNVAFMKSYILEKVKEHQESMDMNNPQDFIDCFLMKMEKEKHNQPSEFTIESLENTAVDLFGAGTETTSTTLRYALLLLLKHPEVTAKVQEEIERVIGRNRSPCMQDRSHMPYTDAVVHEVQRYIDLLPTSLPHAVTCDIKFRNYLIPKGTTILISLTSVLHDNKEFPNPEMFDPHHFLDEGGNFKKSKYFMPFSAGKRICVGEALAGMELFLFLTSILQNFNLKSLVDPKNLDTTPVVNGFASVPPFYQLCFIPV
Sequence of 5-hydroxytryptamine receptor 2A (P28223 whole entry): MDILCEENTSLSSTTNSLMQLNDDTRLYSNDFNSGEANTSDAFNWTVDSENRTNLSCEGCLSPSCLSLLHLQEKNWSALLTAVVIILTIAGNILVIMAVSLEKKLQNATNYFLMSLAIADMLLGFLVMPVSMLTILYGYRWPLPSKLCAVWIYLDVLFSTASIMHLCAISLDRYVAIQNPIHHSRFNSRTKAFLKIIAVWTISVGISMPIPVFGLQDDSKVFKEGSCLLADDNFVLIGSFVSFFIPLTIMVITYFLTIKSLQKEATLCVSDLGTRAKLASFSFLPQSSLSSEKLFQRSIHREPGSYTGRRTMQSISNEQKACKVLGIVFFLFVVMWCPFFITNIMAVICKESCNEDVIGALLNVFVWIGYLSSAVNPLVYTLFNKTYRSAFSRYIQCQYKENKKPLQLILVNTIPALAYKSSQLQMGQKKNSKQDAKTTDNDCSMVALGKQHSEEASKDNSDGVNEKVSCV
Sequence of Dopamine D2 receptor and serotonin 1a receptor (Homo sapiens) (P14416 whole entry, looked up, one chain of several): as the sequence (P14416 whole entry) above

For orientation: Ki means a dissociation constant, usually derived from enzyme kinetics or from competition with a known ligand. Usually bioavailability stands for dose-corrected exposure relative to a reference, in per cent. Read a low bioavailability as little systemic uptake. As usually defined, the EC50 is the concentration needed to bring the measured effect to its halfway point. Broadly, the half-life is the time needed for the level to fall by half in the phase considered. Read a high half-life as slow decline. As for `COc1ccccc1N1CCN(CCCCNS(=O)(=O)c2ccc(C)cc2)CC1`, the Ki in [1] was found to be 1 nM; in series [2] it was 200 nM; in series [3], 53 nM; in series [4], 6 nM; in series [5], 12 nM; in series [6] it was 30 nM. In [7], this compound came in with a Ki of 490 nM. In [8], the bioavailability amounted to 2%. This compound also came in with an EC50 in series [9] of 21 nM. The compound further had a half-life in series [10] of 1 h. The Activity in [11] was determined as 65%.

Consider `O=C1c2ccccc2S(=O)(=O)N1CCCCN1CCN(c2ncccn2)CC1` [IPSAPIRONE], for which the Ki in series [1] amounted to 6 nM; on D(2) dopamine receptor, 110 nM; in [4], 229 nM. The Ratio Ki in series [12] came out at 18; in [13], 38. Further, the half-life in series [14] is 2 h.

For orientation: Cmax means the peak of the concentration-time curve. Regarding `CC(=O)Nc1cccc(N2CCN(CCCCNS(=O)(=O)CC(C)C)CC2)c1`, the results for the inhibition constant Ki (in series [1]; on D(2) dopamine receptor; in [4]) were 9.2 nM, above 5000 nM and above 5000 nM, respectively. The Inhibition entry on Cytochrome P450 1A2, on Cytochrome P450 2D6, at Cytochrome P450 3A4, at Cytochrome P450 2C19 and at Cytochrome P450 2C9 was “Not Active” each time. In addition, the Cmax in [15] is 600 ng/mL; in series [17] it was 350 ng/mL. For the same compound, the figures for the half-life in series [16] and in series [10] were 2.4 h and 3.5 h, respectively. Besides, the values for the bioavailability in series [8] and in [20] were 50% and above 80%, respectively. The EC50 in series [9] amounted to 60 nM. Besides, the Activity was 0% in [18] and 5% in [22]. Moreover, the fraction unbound at 2 µM in series [19] is 0.43. The same compound had a half-life at 5 µM in series [21] above 1.5 h.

The values are drawn from ChEMBL document CHEMBL1147799, “An integrated in silico 3D model-driven discovery of a novel, potent, and selective amidosulfonamide 5-HT1A agonist (PRX-00023) for the treatment of anxiety and depression” (J Med Chem, 2006).
